Assay results published in US20120115896A1, “ISOGENIC HUMAN CELL LINES COMPRISING MUTATED CANCER ALLELES AND PROCESS USING THE CELL LINES” (priority 2008, published 2012).
Where two headings read alike, the source gives them in different places.

Assays:
[1] = tested on: panel of cell lines derived from glioblastoma, breast, ovarian, prostate, endometrial and colorectal carcinomas carrying genetic alterations in PIK3CA or PTEN; test: Antiproliferative effects of everolimus on a panel of cancer cell lines; type: cell-based, human; details: FIG. 7A
Text: The present pharmacogenomic analysis of non-transformed cells carrying cancer alleles point to a relationship between the occurrence of PIK3CA mutations and sensitivity to everolimus. The present inventors next assessed whether and to what extent these findings might be applicable to human cancer cells in which mutations in the PIK3CA pathway naturally occur alongside with additional genetic alterations. To this end a panel of cell lines derived from glioblastoma, breast, ovarian, prostate, endometrial and colorectal carcinomas which are known to carry genetic alterations in PIK3CA or PTEN (FIG. 7) were treated with everolimus. […] Everolimus-resistant cells (such as HT-29, HCT 116 and DLD-1) carried mutations in both PIK3CA and KRAS/BRAF.

[2] = tested on: hTERT-HME1 WT, PIK3CA E545K and H1047R KI cells; test: CFSE time-course of cell divisions by flow cytometry; type: cell-based, human; details: everolimus 500 nM, 7 days
Protocol: (A) CFSE-labelled cells were analyzed by flow cytometry at the indicated time-points (top panels). The maximum fluorescence intensity for all samples was recorded at day 0 (depicted in filled black). […] (B) Cells of the indicated genotype were incubated with everolimus 500 nM for 48 h, after which cell cycle was analyzed by flow cytometry. No increase of the subG1 apoptotic fraction of cells was observed upon treatment. Representative data from 3 independent experiments are shown.
For time-course experiments, on the initial day hTERT-HME1 cells were labelled with 3 μM CFSE (5-(and -6)-carboxyfluorescein diacetate, succinimidyl ester, Invitrogen C1157, Milan, Italy) in PBS in the dark for 30 minutes. After washing and recording baseline fluorescence, cells were plated in media containing 1% FBS and 2 ng/mL EGF, and treatment with everolimus was initiated, replenishing the drug on a daily basis. For cell cycle analysis, trypsinized cells were washed with PBS and cell nuclei DNA were stained with propidium iodide (PI) for at least 120 minutes using a commercial kit (DNA con 3, Consul T.S., Orbassano, Italy).
All fluorescence levels were detected by flow cytometry on a FACSCalibur (Becton Dickinson, Milan, Italy) and analyzed using CellQuest software. The number of events collected for each sample varied between 15,000 and 50,000. After doublets exclusion, an extended analysis of the DNA content and calculations of the percentage of cells in each phase of the cell cycle were performed on ModFit Lt software (Verity Software House, Topsham, Me.).

[3] = tested on: phosphorylation of p70S6K, RpS6, AKT and MAPK in hTERT-HME1 WT and KI cells; test: Biochemical effects of everolimus: immunoblot and ELISA of phospho-proteins; type: cell-based, human; details: for levels of phospho-MAPK: FIG. 16E
Protocol: (A, E) After 30 minutes' treatment with everolimus 500 nM, cells of the indicated genotype were lysed and immunoblotted with the anti-phospho-P70S6K, totalP70S6K, phospho-MAPK and total MAPK antibodies (B, C, D) The same lysates were also used for ELISA measurements of total AKT, phosphoAKT (Thr308), phosphoAKT (Ser473), total RpS6 and phosphoRpS6 levels. Numbers indicate the ratio of phosphorylated protein related to total protein levels and are normalized respect to the untreated (NT) hTERT-HME1 WT cells. DKI, Double Knock-In cells carrying both PIK3CA H1047R and KRAS G13D alleles.
SDS PAGE was performed using Invitrogen Precasted gels (Invitrogen Carlsbad, Calif.); western blotting transfer onto Hybond-C Extra membranes (Amersham, Amersham Biosciences, Uppsala, Sweden) was done following standard methods. The primary antibodies used for immunoblotting were: Anti-AKT (Cell Signaling, Technology, Danvers, Mass.); Anti-phospho-AKT S473 (Cell Signaling, Technology, Danvers, Mass.); Anti-Actin and Anti-Vinculin (Sigma-Aldrich, St. Louis, Mo.); Phospho-p44/42 Map kinase (Thr202/Tyr204) (Cell Signaling, Technology, Danvers, Mass.); Anti-phospho-EGFR Receptor (Tyr 1068) and Anti EGFR Receptor (Cell Signaling Technology, Danvers, Mass.).

[4] = tested on: HKe-3 (HCT116-derivative KRAS WT clone) cells; test: Proliferation under everolimus (72 hours) of cells infected with control or KRASG13D lentivirus; type: cell-based, human; details: KRAS G13D lentivirus, FIG. 17A
Protocol: (§1) Effect of everolimus (72 hours) on proliferation of HKe-3 (HCT116-derivative KRAS WT clone) (A) and ME-180 (B) cells infected with control or KRASG13D lentivirus.
(§2) The present inventors transduced HCT116-derivative clones that had only the KRAS WT allele (HKe-3), and the […] cancer cell line ME-180 (carrying PIK3CA E545K mutant and KRAS WT) with a lentiviral vector encoding for KRAS G13D cDNA.

ME-180 cells = test: as above; type: cell-based, human; details: KRAS G13D lentivirus, FIG. 17B
Protocol: as §1, §2

[5] = tested on: hTERT-HME1 DKI cells carrying PIK3CA (H1047R) and EGFR (delE746-A750)

CO[C@H]1C[C@@H]2CC[C@@H](C)[C@@](O)(O2)C(=O)C(=O)N2CCCC[C@H]2C(=O)O[C@H]([C@H](C)C[C@@H]2CC[C@@H](OCCO)[C@H](OC)C2)CC(=O)[C@H](C)/C=C(\C)[C@@H](O)[C@@H](OC)C(=O)[C@H](C)C[C@H](C)/C=C/C=C/C=C/1C [everolimus, Everolimus]
response of tumor cells with PIK3CA pathway alterations but no mutation in KRAS/BRAF [1]: sensitive | response of tumor cells carrying mutations in both PIK3CA and KRAS/BRAF ([1]; such as HT-29, HCT 116 and DLD-1): resistant | slowing of cell growth (CFSE) ([2]; PIK3CA E545K): less pronounced | slowing of cell growth (CFSE) ([2]; PIK3CA H1047R): particularly evident | slowing of cell growth (CFSE) ([2]; WT cells): only minimal | levels of phospho-MAPK ([3]; KRAS G13D mutated cells): decreased | levels of phospho-MAPK ([3]; WT cells and PIK3CA H1047R mutated cells): essentially unchanged | phospho-AKT ([3]; all genotypes, everolimus 500 nM, 30 minutes, FIG. 16C, D): increase | p70S6K phosphorylation ([3]; everolimus 500 nM, 30 minutes, FIG. 16A): abrogated | activated phospho-RpS6 levels ([3]; everolimus 500 nM, 30 minutes, FIG. 16B): decrease | response after (re-)introduction of mutated KRAS versus control vector [4]: decreased response to the antiproliferative effects | response after introduction of mutated KRAS versus control vector (ME-180 cells): decreased response to the antiproliferative effects | ΔKI PIK3CA + EGFR ([5]; Log(M) −5.70): 0 | ΔKI PIK3CA + EGFR ([5]; Log(M) −6.70): 1.38 | ΔKI PIK3CA + EGFR ([5]; Log(M) −7.70): 0 | ΔKI PIK3CA + EGFR ([5]; Log(M) −8.70): 0.68 | ΔKI PIK3CA + EGFR ([5]; Log(M) −9.70): 0
